Measured values taken from article PMC11432405, “Development of Novel Alaninamide Derivatives with Anticonvulsant Activity and Favorable Safety Profiles in Animal Models” (International Journal of Molecular Sciences, 2024).
Where two headings read alike, the source gives them in different places.

Tests used:
[1] = system: 6 Hz (32 mA) seizures; settings: cited from earlier work; for PI (TD50/ED50) 6 Hz: TD50 rotarod / ED50 6 Hz (32 mA)
[2] = system: motor coordination; settings: cited from earlier work
[3] = system: maximal electroshock (MES) seizures; settings: TD50 rotarod / ED50 MES; cited from earlier work
[4] = system: 6 Hz (44 mA) seizures; settings: TD50 rotarod / ED50 6 Hz (44 mA); cited from earlier work
[5] = system: 6 Hz (32 mA) seizures; experiment: 6 Hz (32 mA) psychomotor seizure model; settings: for PI (TD50/ED50) 6 Hz: TD50 rotarod / ED50 6 Hz (32 mA); for protection (efficacy) in the 6 Hz (32 mA) screening / ED50 6 Hz (32 mA) / 6 Hz (32 mA) test: number of mice protected / number of mice tested: mice i.p.; for protection (efficacy) in the 6 Hz (32 mA) screening: 100 mg/kg, four mice; for protection (efficacy) in the 6 Hz (32 mA) screening / ED50 / responders at 100 mg/kg: 0.5 h; for ED50 6 Hz (32 mA): TPE 0.5 h, 95% confidence interval in parentheses; for 6 Hz (32 mA) test: number of mice protected / number of mice tested: dose of 100 mg/kg, pretreatment time 0.5 h; for ED50 / responders at 100 mg/kg: Mus musculus, ip; for ED50: read-out: ED50 6 Hz (32 mA), mice i.p., TPE 0.5 h, 95% confidence interval in parentheses; for responders at 100 mg/kg: read-out: protection (efficacy) in the 6 Hz (32 mA) screening;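 for all read-outs here: adult male albino Swiss CD-1 mice, each used once, with compounds suspended in 1% Tween 80 in water as vehicle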
[6] = system: maximal electroshock (MES) seizures; experiment: maximal electroshock seizure (MES) test; assay type: in vivo, mice; settings: for PI (TD50/ED50) MES: TD50 rotarod / ED50 MES; for protection (efficacy) in the MES screening / ED50 MES / MES test: number of mice protected / number of mice tested / responders at 100 mg/kg / ED50: mice i.p.; for ED50 MES / ED50: TPE 0.5 h, 95% confidence interval in parentheses; for responders at 100 mg/kg / ED50: Mus musculus, ip
Description: Epilepsy is a multifaceted disorder with often unclear etiology, making it challenging to pinpoint a specific receptor or transporter as the definitive target. Consequently, the discovery of ASMs deviates from the traditional drug development pathway, which typically involves designing a new molecule, docking it with a specific biological target, and performing chemical synthesis, followed by in vitro assays. Instead, numerous animal seizure models, which mirror various types of human epileptic seizures, are initially employed in the process of new ASM discovery. This approach has been instrumental in the identification and introduction into clinical practice of all currently used ASMs and continues to be a cornerstone in the preclinical development of new anticonvulsants. The primary justification for prioritizing in vivo screening over in vitro binding and functional studies is the complex and often not fully elucidated mechanisms of action of known ASMs. This approach also facilitates the discovery of compounds with novel, previously undefined pharmacodynamic properties. In light of this, we evaluated all compounds obtained in the current studies using the MES test, which remains one of the most valuable preclinical screening models for tonic-clonic seizures, as well as partial convulsions with or without secondary generalization in humans. This test allows for a comprehensive assessment of the anticonvulsant efficacy of new ASM candidates and is considered highly relevant for predicting their therapeutic efficacy in human epilepsy. The MES test was carried out in mice following the intraperitoneal (i.p.) administration of a screening dose of 100 mg/kg in a group consisting of four animals. The efficacy of the compounds synthesized was evaluated at 0.5 h pretreatment time.
Fresh solutions were prepared daily for each experimentation session.
Each group consisted of six animals.

[7] = system: motor coordination; experiment: rotarod test (acute neurological toxicity, motor coordination); assay type: in vivo; settings: mice i.p., 0.5 h
Description: (§2) The protective indexes (PIs) were then calculated as the ratio of TD50 to ED50 (PI = TD50/ED50), providing an assessment of the therapeutic window for each compound.

[8] = target: T1, human recombinant MAO-B (Homo sapiens, UniProt P27338); experiment: fluorometric monoamine oxidase B inhibition assay; assay type: biochemical; settings: for % inhibition MAO-B (1 µM): mean of two independent experiments; for inhibition at 1 µM: read-out: % inhibition MAO-B (1 µM), mean of two independent experiments
T1 construct: purchased Sigma Aldrich
T1 sequence (P27338 1-520): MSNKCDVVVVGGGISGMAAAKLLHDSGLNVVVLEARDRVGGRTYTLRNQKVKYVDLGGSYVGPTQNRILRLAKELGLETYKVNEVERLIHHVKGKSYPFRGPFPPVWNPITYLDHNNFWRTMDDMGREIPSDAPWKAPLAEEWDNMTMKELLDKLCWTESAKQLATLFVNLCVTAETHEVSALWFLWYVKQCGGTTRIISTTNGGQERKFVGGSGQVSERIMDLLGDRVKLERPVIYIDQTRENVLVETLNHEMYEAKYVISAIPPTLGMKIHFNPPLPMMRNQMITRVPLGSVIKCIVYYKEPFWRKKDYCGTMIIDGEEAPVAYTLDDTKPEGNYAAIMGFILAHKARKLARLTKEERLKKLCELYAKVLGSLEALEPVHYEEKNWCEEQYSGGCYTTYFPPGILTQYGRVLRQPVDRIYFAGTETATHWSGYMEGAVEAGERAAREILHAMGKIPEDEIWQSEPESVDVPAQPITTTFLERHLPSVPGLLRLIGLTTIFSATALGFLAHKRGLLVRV

[9] = system: HepG2 cells; experiment: hepatocytotoxicity MTT viability assay; assay type: cell-based, human; settings: 24 h
Description: (§1) To evaluate selected compounds’ hepatocytotoxicity and neurocytotoxicity, a human hepatocellular carcinoma cell line, HepG2 (ATCC® HB-8065™), and a human neuroblastoma cell line, SH-SY5Y (ATCC®, CRL-2266™), were used. Both cell lines were cultured in standard culture conditions (5% CO2, 37 °C, 95% humidity) using Dulbecco′s Modified Eagle′s—Medium (DMEM; Gibco, Thermo Scientific, Waltham, MA, USA) supplemented with 10% (vol/vol) fetal bovine serum (FBS; Gibco, Thermo Scientific, Waltham, MA, USA) and an antibiotic mixture (Penicillin, Streptomycin, Amphotericin B; Gibco, Thermo Scientific, Waltham, MA, USA). Cells were cultured with compounds 5, […], or 39 (1–50 µM) for 24 h and then an MTT (3-(4,5-dimethylthiazol-2-yl)-2,5diphenyltetrazolium bromide, Sigma-Aldrich, St. Louis, MO, USA) viability assay was performed. The formazan crystals were dissolved in DMSO (Sigma-Aldrich, St. Louis, MO, USA), and the absorbance at 570 nm was measured using a microplate reader (SpectraMax® iD3, Molecular Devices, San Jose, CA, USA). The experiment was performed three times in duplicate. Each bar represents the mean (±SEM) percentage of viable cells in comparison to the control (defined as 100% and represented by untreated cells).
Figure 2 The viability of HepG2 cells incubated in the presence of 5, 17, and 39. HepG2 cells were exposed to growing concentrations (1–50 µM) of tested compounds for 24 h. Cell viability was measured using an MTT assay. Bars represent mean percent of cell viability normalized to non-treated cells (100%) ± SEM. The doxorubicin was tested as a positive control.

[10] = system: SH-SY5Y cells; experiment: neurocytotoxicity MTT viability assay; assay type: cell-based, human; settings: 1–50 µM, 24 h
Description: as §1
Figure 3 The viability of SH-SY5Y cells incubated in the presence of compounds 5, 17, and 39. […] Cell viability was measured using an MTT assay. […]

[11] = rotarod test (acute neurological toxicity, motor coordination); assay type: in vivo; settings: male, CD-1 (albino Swiss), mouse, in vivo, ip, mice i.p.
Description: as §2

[12] = dose of 100 mg/kg, pretreatment time 0.5 h
[13] = dose of 100 mg/kg, pretreatment time 0.5 h, read-out: MES test: number of mice protected / number of mice tested (converted)

For `C[C@H](C(=O)NCc1ccccc1)N1C(=O)CCC1=O` [(R)-AS-1, (R)-N-Benzyl-2-(2,5-Dioxopyrrolidin-1-Yl)Propanamide], the “PI (TD50/ED50) 6 Hz” value [1] is listed as over 32.0, the “TD50 (rotarod test)” value ([2]; mouse, in vivo, ip) is listed as over 500 mg/kg and the “PI (TD50/ED50) MES” value [3] is listed as over 7.5. For the same molecule, the “PI (TD50/ED50) 6 Hz (44 mA)” value [4] was over 12.0.

For `CC(C(=O)NCc1ccc(OCc2cccc(F)c2)cc1)N1C(=O)CCC1=O` (centres unmarked) [Compound 7, 2-(2,5-dioxopyrrolidin-1-yl)-N-(4-((3-fluorobenzyl)oxy)benzyl)propanamide], the “PI (TD50/ED50) 6 Hz” value [5] was over 4.2, the “protection (efficacy) in the 6 Hz (32 mA) screening” value (shortened to “protection (efficacy) in the 6 Hz”) [5] was 100% and the “ED50 6 Hz (32 mA)” value [5] was 71.73 (66.6–77.23) mg/kg. For the same molecule, the “6 Hz (32 mA) test: number of mice protected / number of mice tested” value [5] was 4/4, the “PI (TD50/ED50) MES” value [6] was over 3.8 and the “protection (efficacy) in the MES screening” value ([6]; 100 mg/kg, 0.5 h, four mice) was at most 25%. For the same molecule, the “ED50 MES” value [6] was 78.30 (65.82–93.13) mg/kg, the “MES test: number of mice protected / number of mice tested” value [6, 12] was 1/4 and the “TD50 (rotarod test)” value [7] was over 300 mg/kg. For the same molecule, the “% inhibition MAO-B (1 µM)” value [8] was 0%.

With `CC(C(=O)NCc1ccc(OCc2ccccc2Cl)cc1)N1C(=O)CCC1=O` (centres unmarked) [Compound 9, N-(4-((2-chlorobenzyl)oxy)benzyl)-2-(2,5-dioxopyrrolidin-1-yl)propanamide] the “PI (TD50/ED50) 6 Hz” value [5] was over 5.2, the “protection (efficacy) in the 6 Hz” value [5] was 75% and the “ED50 6 Hz (32 mA)” value [5] was 57.69 (33.98–97.94) mg/kg. For the same molecule, the “6 Hz (32 mA) test: number of mice protected / number of mice tested” value [5] was 3/4, the “PI (TD50/ED50) MES” value [6] was over 6.3 and the “protection (efficacy) in the MES screening” value ([6]; 100 mg/kg, 0.5 h, four mice) was 100%. For the same molecule, the “MES test: number of mice protected / number of mice tested” value [6, 12] was 4/4, the “TD50 (rotarod test)” value [7] was over 300 mg/kg and the “% inhibition MAO-B (1 µM)” value [8] was 0%.

In the case of `CC(C(=O)NCc1ccc(OCc2cccc(Cl)c2)cc1)N1C(=O)CCC1=O` (centres unmarked) [Compound 10, N-(4-((3-chlorobenzyl)oxy)benzyl)-2-(2,5-dioxopyrrolidin-1-yl)propanamide], the “PI (TD50/ED50) 6 Hz” value [5] was over 5.0, the “protection (efficacy) in the 6 Hz” value [5] was 75% and the “ED50 6 Hz (32 mA)” value [5] was 59.31 (45.54–73.08) mg/kg. The “6 Hz (32 mA) test: number of mice protected / number of mice tested” value [5] was 3/4, the “PI (TD50/ED50) MES” value [6] was over 5.9 and the “protection (efficacy) in the MES screening” value ([6]; 100 mg/kg, 0.5 h, four mice) was 100%. For the same molecule, the “ED50 MES” value [6] was 50.87 (45.29–57.13) mg/kg, the “MES test: number of mice protected / number of mice tested” value [6, 12] was 4/4 and the “TD50 (rotarod test)” value [7] was over 300 mg/kg. For the same molecule, the “% inhibition MAO-B (1 µM)” value [8] was 0%.

For `CC(C(=O)NCc1ccc(OCc2ccc(OC(F)(F)F)cc2)cc1)N1C(=O)CCC1=O` (centres unmarked) [Compound 17, 2-(2,5-dioxopyrrolidin-1-yl)-N-(4-((4-(trifluoromethoxy)benzyl)oxy)benzyl)propanamide], the “toxic effect on HepG2 cell viability (MTT)” value ([9]; 1–50 µM) was “do not exhibit toxic effects”, the ED50 [5] was 77 mg/kg and the responders at 100 mg/kg [5] was 75%. The “toxic effect on SH-SY5Y cell viability (MTT)” value [10] was “do not exhibit toxic effects”, the responders at 100 mg/kg ([6]; 100 mg/kg, 0.5 h, four mice, read-out: protection (efficacy) in the MES screening) was 100% and the ED50 [6] was 21 mg/kg. For the same molecule, the responders at 100 mg/kg [6, 13] was 100%, the TD50 at 0.5 h [11] was over 300 mg/kg and the melting point was 104.1 to 104.8 °C. For the same molecule, the inhibition at 1 µM [8] was 0%.

For `CC(C(=O)NCc1ccc(OCc2ccc(OC(F)(F)F)cc2)cc1)N1CCCC1=O` (centres unmarked) [Compound 39, 2-(2-oxopyrrolidin-1-yl)-N-(4-((4-(trifluoromethoxy)benzyl)oxy)benzyl)propanamide], the “cell viability at higher concentration (MTT)” value ([9]; 50 µM, cell line not specified in the sentence (Figures 2 and 3)) was “statistically significant decrease in cell viability”, the ED50 [5] was 37.3 mg/kg and the responders at 100 mg/kg [5] was 100%. The “PI (TD50/ED50) 6 Hz” value [5] was under 8.0, the ED50 [6] was 36.2 mg/kg and the responders at 100 mg/kg [6, 13] was 100%. The “PI (TD50/ED50) MES” value [6] was under 8.3, the TD50 at 0.5 h [11] was under 300 mg/kg and the melting point was 103.4 to 103.9 °C. It also gave an inhibition at 1 µM [8] of 0%.

For `CC[C@@H](C(N)=O)N1CCCC1=O` [LEV, levetiracetam], the “TD50 (rotarod test)” value ([2]; mice i.p., Table 2) is given as over 500 mg/kg and the “TD50 (rotarod test)” value ([2]; mice i.p., Table 3) is given as over 500 mg/kg.

For `CCCC(CCC)C(=O)O` [VPA, valproic acid], the “PI (TD50/ED50) 6 Hz” value [1] is given as 3.3, the “ED50 6 Hz (32 mA)” value ([1]; mice i.p., TPE 0.5 h (LEV 1.0 h)) is given as 130.6 (117.6–145.2) mg/kg and the “PI (TD50/ED50) MES” value [3] is given as 1.7. The “PI (TD50/ED50) 6 Hz (44 mA)” value [4] was 2.3.
